Patent publication US20040029823A1, “Antisense oligonucleotide compositions and methods for the modulation of JNK proteins” (priority 1997, published 2004)
Strand notation (5' to 3'): a small letter for the sugar, then the base; units joined by * are phosphorothioate-linked, units joined directly phosphodiester-linked; [ ] holds rarer units or linkages, { } end groups; capitals alone tell only the bases. e = 2'-O-(2-methoxyethyl) (MOE); [5mC] = 5-methylcytosine; d = 2'-deoxy (DNA)

What was measured:
rat JNK2 mRNA = test: Northern assay of rat JNK2 (p54a) mRNA in A10 aortic smooth muscle cells; format: cell-based; design: inhibition of rat JNK2 mRNA levels / % INHIBITION: concentration or dose not given beside the values; conditions: for % INHIBITION / % EXPRESSION: rat JNK2 (p54a) mRNA in A10 cells; for % EXPRESSION: relative to LIPOFECTIN-only control; for inhibition of rat JNK2 mRNA levels: A10 cells (Table 22); for % EXPRESSION JNK2 / capacity to modulate both JNK1 and JNK2 (Pan JNK): A10 cells; for capacity to modulate both JNK1 and JNK2 (Pan JNK): rat JNK1 and JNK2 mRNA
Method: (§1) In order to study the role of JNK proteins in animal models, oligonucleotides targeted to the genes encoding JNK1, JNK2 and JNK3 of Rattus norvegicus were prepared. These oligonucleotides are 2′-methoxyethoxy, phosphodiester/2′-hydroxyl, phosphorothioate/2′-methoxyethoxy, phosphodiester “gapmers” in which every cytosine residue is 5-methylcytosine (m5c). These antisense compounds were synthesized according to the methods of the disclosure. Certain of these oligonucleotides are additionally specifically hybridizable to JNK genes from other species as indicated herein. The oligonucleotides described in this Example were tested for their ability to modulate rat JNK mRNA levels essentially according to the methods described in the preceding Examples, with the exceptions that the cell line used was rat A10 aortic smooth muscle cells (ATCC No. ATCC CRL-1476) and the probes used were specific for rat JNK1, JNK2 or JNK3 (see infra). A10 cells were grown and treated with oligonucleotides essentially as described by (Cioffi et al. Mol. Pharmacol., 1997, 51, 383).
(§2) These antisense compounds were tested for their ability to modulate levels of p54? (JNK1) and p54a (JNK2) mRNA in A10 cells via Northern assays. Due to the high degree of sequence identity between the human and rat genes, radiolabeled human JNK1 (Example 3) and JNK2 (Example 4) cDNAs functioned as specific probes for the rat homologs.
These antisense compounds were tested for their ability to modulate levels of p54a (JNK2) mRNA in A10 cells using the radiolabeled human JNK2 cDNA as a probe as described supra. Oligonucleotides showing levels of inhibition from ≧ about 60% to about 100% of rat JNK2 mRNA levels include ISIS Nos. 18254, 18255, 18257, 18258, 18259, 18260 and 18265 (SEQ ID NOS: 125, 126, 128, 129, 130, 131 and 136, respectively). These oligonucleotides are preferred embodiments of the invention for modulating rat JNK2 expression. […] These oligonucleotides are thus more preferred embodiments of the invention for modulating rat JNK2 expression. ISIS 18259 (SEQ ID NO: 130) was chosen for use in further studies (infra).

rat JNK1 mRNA = test: Northern assay of rat JNK1 (p54?) mRNA in A10 aortic smooth muscle cells; format: cell-based; conditions: for % EXPRESSION JNK1: A10 cells; for inhibition of rat JNK1 mRNA levels: A10 cells (Table 20)
Method: as §1, §2

[1] = rat JNK2 mRNA, oligonucleotides targeted to rat JNK1
[2] = rat JNK1 mRNA, oligonucleotides targeted to rat JNK1

Substance	% INHIBITION (rat JNK2 mRNA)	% EXPRESSION (rat JNK2 mRNA)	% EXPRESSION JNK2 (rat JNK2 mRNA; [1])	% EXPRESSION JNK1 (rat JNK1 mRNA; [2])	inhibition of rat JNK1 mRNA levels (rat JNK1 mRNA)	further results
18255 (antisense eTeGeTeGeG*dT*dG*dT*dG*dA*dA*d[5mC]*dA*d[5mC]*dA*eTeTeTeAeA) [compound 18255]	79%	21%	–	–	–	–
18256 (antisense e[5mC]e[5mC]eAeTeA*dT*dG*dA*dA*dT*dA*dA*d[5mC]*d[5mC]*dT*eGeAe[5mC]eAeT) [compound 18256]	20%	80%	–	–	–	–
18257 (antisense eGeAeTeAeT*d[5mC]*dA*dA*d[5mC]*dA*dT*dT*d[5mC]*dT*d[5mC]*e[5mC]eTeTeGeT) [compound 18257]	68%	32%	–	–	–	inhibition of rat JNK2 mRNA levels (rat JNK2 mRNA): ≥ 60%
18258 (antisense eGe[5mC]eTeTe[5mC]*dG*dT*d[5mC]*d[5mC]*dA*d[5mC]*dA*dG*dA*dG*eAeTe[5mC]e[5mC]eG) [compound 18258]	81%	19%	–	–	–	–
18259 (antisense eGe[5mC]eTe[5mC]eA*dG*dT*dG*dG*dA*d[5mC]*dA*dT*dG*dG*eAeTeGeAeG) [compound 18259]	85%	15%	–	–	–	% EXPRESSION JNK2 (rat JNK2 mRNA; dose response, 10 nM): 81%; % EXPRESSION JNK2 (rat JNK2 mRNA; dose response, 50 nM): 35%; % EXPRESSION JNK2 (rat JNK2 mRNA; dose response, 100 nM): 15%; % EXPRESSION JNK2 (rat JNK2 mRNA; dose response, 200 nM): 5%; % EXPRESSION JNK1 (rat JNK1 mRNA; dose response, 10 nM): 95%; % EXPRESSION JNK1 (rat JNK1 mRNA; dose response, 50 nM): 101%; % EXPRESSION JNK1 (rat JNK1 mRNA; dose response, 100 nM): 94%; % EXPRESSION JNK1 (rat JNK1 mRNA; dose response, 200 nM): 89%
18260 (antisense eAeTe[5mC]eTeG*d[5mC]*dG*dA*dG*dG*dT*dT*dT*d[5mC]*dA*eTe[5mC]eGeGe[5mC]) [compound 18260]	–	–	–	–	–	inhibition of rat JNK2 mRNA levels (rat JNK2 mRNA): ≥ 60%
18261 (antisense e[5mC]e[5mC]eAe[5mC]e[5mC]*dA*dG*d[5mC]*dT*d[5mC]*d[5mC]*d[5mC]*dA*dT*dG*eTeGe[5mC]eTe[5mC]) [compound 18261]	53%	47%	–	–	–	–
18262 (antisense e[5mC]eAeGeTeT*dA*d[5mC]*dA*d[5mC]*dA*dT*dG*dA*dT*d[5mC]*eTeGeTe[5mC]eA) [compound 18262]	50%	50%	–	–	–	–
18263 (antisense eAeAeGeAeG*dG*dA*dT*dT*dA*dA*dG*dA*dG*dA*eTeTeAeTeT) [compound 18263]	37%	63%	–	–	–	–
18264 (DNA eAeGe[5mC]eAeG*dA*dG*dT*dG*dA*dA*dA*dT*dA*d[5mC]*eAeAe[5mC]eTeT; antisense) [compound 18264]	52%	48%	–	–	–	–
18265 (DNA eTeGeTe[5mC]eA*dG*d[5mC]*dT*d[5mC]*dT*dA*d[5mC]*dA*dT*dT*eAeGeGe[5mC]eA; antisense) [compound 18265]	62%	38%	–	–	–	inhibition of rat JNK2 mRNA levels (rat JNK2 mRNA): ≥ 60%
18266 (DNA eAeGeTeAeA*dG*d[5mC]*d[5mC]*d[5mC]*dG*dG*dT*d[5mC]*dT*d[5mC]*e[5mC]eTeAeAeG; antisense) [compound 18266]	34%	66%	–	–	–	–
18267 (DNA eAeAeAeTeG*dG*dA*dA*dA*dA*dG*dG*dA*d[5mC]*dA*eGe[5mC]eAeGe[5mC]; antisense) [compound 18267]	16%	84%	–	–	–	–
21857 (DNA e[5mC]eAeAe[5mC]eG*dT*d[5mC]*d[5mC]*d[5mC]*dG*d[5mC]*dG*d[5mC]*dT*d[5mC]*eGeGe[5mC]e[5mC]eG; antisense) [compound 21857]	–	–	91%	24%	–	–
21858 (DNA e[5mC]e[5mC]eTeGe[5mC]*dT*d[5mC]*dG*d[5mC]*dG*dG*d[5mC]*dT*d[5mC]*d[5mC]*eGe[5mC]eGeTeT; antisense) [compound 21858]	–	–	89%	8%	at least 90%	–
21859 (DNA e[5mC]eTe[5mC]eAeT*dG*dA*dT*dG*dG*d[5mC]*dA*dA*dG*d[5mC]*eAeAeTeTeA) [compound 21859]	–	–	106%	5%	at least 90%	% EXPRESSION JNK2 (rat JNK2 mRNA; dose response, 10 nM): 101%; % EXPRESSION JNK2 (rat JNK2 mRNA; dose response, 50 nM): 98%; % EXPRESSION JNK2 (rat JNK2 mRNA; dose response, 100 nM): 99%; % EXPRESSION JNK2 (rat JNK2 mRNA; dose response, 200 nM): 101%; % EXPRESSION JNK1 (rat JNK1 mRNA; dose response, 10 nM): 74%; % EXPRESSION JNK1 (rat JNK1 mRNA; dose response, 50 nM): 25%; % EXPRESSION JNK1 (rat JNK1 mRNA; dose response, 100 nM): 11%; % EXPRESSION JNK1 (rat JNK1 mRNA; dose response, 200 nM): 8%
21860 (DNA eTeGeTeTeG*dT*d[5mC]*dA*d[5mC]*dG*dT*dT*dT*dA*d[5mC]*eTeTe[5mC]eTeG; antisense) [compound 21860]	–	–	98%	8%	at least 90%	–
21861 (DNA e[5mC]eGeGeTeA*dG*dG*d[5mC]*dT*d[5mC]*dG*d[5mC]*dT*dT*dA*eGe[5mC]eAeTeG; antisense) [compound 21861]	–	–	13%	6%	at least 90%	capacity to modulate both JNK1 and JNK2 (Pan JNK) (rat JNK2 mRNA): demonstrated a capacity to modulate both JNK1 and JNK2
21862 (DNA e[5mC]eTeAeGeG*dG*dA*dT*dT*dT*d[5mC]*dT*dG*dT*dG*eGeTeGeTeG; antisense) [compound 21862]	–	–	133%	6%	at least 90%	–
21863 (DNA e[5mC]eAeGe[5mC]eA*dG*dA*dG*dT*dG*dA*dA*dG*dG*dT*eGe[5mC]eTeTeG; antisense) [compound 21863]	–	–	107%	24%	–	–
21864 (DNA eTe[5mC]eGeTeT*d[5mC]*d[5mC]*dT*dG*d[5mC]*dA*dG*dT*d[5mC]*d[5mC]*eTeTeGe[5mC]e[5mC]; antisense) [compound 21864]	–	–	106%	8%	at least 90%	–
21865 (DNA e[5mC]e[5mC]eAeTeT*dT*d[5mC]*dT*d[5mC]*d[5mC]*d[5mC]*dA*dT*dA*dA*eTeGe[5mC]eAe[5mC]; antisense) [compound 21865]	–	–	50%	5%	at least 90%	–
21866 (DNA eTeGeAeAeT*dT*d[5mC]*dA*dG*dG*dA*d[5mC]*dA*dA*dG*eGeTeGeTeT; antisense) [compound 21866]	–	–	98%	8%	at least 90%	–
21867 (DNA eAeGe[5mC]eTeT*d[5mC]*dG*dT*d[5mC]*dT*dA*d[5mC]*dG*dG*dA*eGeAeTe[5mC]e[5mC]; antisense) [compound 21867]	–	–	21%	5%	at least 90%	capacity to modulate both JNK1 and JNK2 (Pan JNK) (rat JNK2 mRNA): demonstrated a capacity to modulate both JNK1 and JNK2
21868 (DNA e[5mC]eAe[5mC]eTe[5mC]*d[5mC]*dT*d[5mC]*dT*dA*dT*dT*dG*dT*dG*eTeGe[5mC]eTe[5mC]; antisense) [compound 21868]	–	–	112%	15%	–	–
21869 (DNA eGe[5mC]eTeGe[5mC]*dA*d[5mC]*d[5mC]*dT*dA*dA*dA*dG*dG*dA*eGeAe[5mC]eGeG; antisense) [compound 21869]	–	–	93%	30%	–	–
21870 (DNA e[5mC]e[5mC]eAeGeA*dG*dT*d[5mC]*dG*dG*dA*dT*d[5mC]*dT*dG*eTeGeGeAe[5mC]; antisense) [compound 21870]	–	–	87%	11%	–	–
